# Test results taken from the supplement of paper PMC8960247.
# Where a name gives a salt, the structure may show the parent alone. ± gives the standard error.
# Key:
# 621-103 (TSC2-rescued) = assay: relative viability vs DMSO; higher = less cytotoxic; conditions: serum: 10% FBS, 72 h
# 621-102 (TSC2-deficient) [1] = assay: as above; conditions: serum: 10% FBS, 72 h
# UMB1949 (TSC2-deficient) = assay: relative viability vs DMSO (fraction); higher = less cytotoxic; conditions: serum: 0.1% FBS, 72 h;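 note: renal angiomyolipoma cell lines screened in 384-well plates, viability normalized per plate to DMSO-treated cells, each plate carrying 50 nM rapamycin and 1 µM staurosporine controls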
# 621-102 (TSC2-deficient) [2] = assay: as above; conditions: serum: 0.1% FBS, 72 h
SMILES,relative viability (621-103 (TSC2-rescued); 0.0001 µM),relative viability (621-103 (TSC2-rescued); 0.001 µM),relative viability (621-103 (TSC2-rescued); 0.01 µM),relative viability (621-103 (TSC2-rescued); 0.1 µM),relative viability (621-103 (TSC2-rescued); 1 µM),relative viability (621-103 (TSC2-rescued); 10 µM),relative viability (621-102 (TSC2-deficient) [1]; 0.0001 µM),relative viability (621-102 (TSC2-deficient) [1]; 0.001 µM),relative viability (621-102 (TSC2-deficient) [1]; 0.01 µM),relative viability (621-102 (TSC2-deficient) [1]; 0.1 µM),relative viability (621-102 (TSC2-deficient) [1]; 1 µM),relative viability (621-102 (TSC2-deficient) [1]; 10 µM),relative viability (UMB1949 (TSC2-deficient); 0.0128 nM),relative viability (UMB1949 (TSC2-deficient); 0.064 nM),relative viability (UMB1949 (TSC2-deficient); 0.32 nM),relative viability (UMB1949 (TSC2-deficient); 1.6 nM),relative viability (UMB1949 (TSC2-deficient); 8 nM),relative viability (UMB1949 (TSC2-deficient); 40 nM),relative viability (UMB1949 (TSC2-deficient); 200 nM),relative viability (UMB1949 (TSC2-deficient); 1000 nM),relative viability (UMB1949 (TSC2-deficient); 5000 nM),relative viability (621-102 (TSC2-deficient) [2]; 0.0128 nM),relative viability (621-102 (TSC2-deficient) [2]; 0.064 nM),relative viability (621-102 (TSC2-deficient) [2]; 0.32 nM),relative viability (621-102 (TSC2-deficient) [2]; 1.6 nM),relative viability (621-102 (TSC2-deficient) [2]; 8 nM),relative viability (621-102 (TSC2-deficient) [2]; 40 nM),relative viability (621-102 (TSC2-deficient) [2]; 200 nM),relative viability (621-102 (TSC2-deficient) [2]; 1000 nM),relative viability (621-102 (TSC2-deficient) [2]; 5000 nM)
CC(C)C[C@@H](C(=O)N[C@H](C(=O)OC1CCCC1)c1ccccc1)[C@H](O)C(=O)NO [CHR-2797],103 ± 2.1%,105.3 ± 0.65%,115 ± 1.4%,111 ± 7.5%,104.4 ± 0.14%,89.6 ± 2.7%,112 ± 1.6%,116 ± 2.4%,114.53 ± 0.03%,102 ± 1.6%,89.8 ± 1.5%,82 ± 2.1%,1.06,0.998,0.978,1.02,0.982,0.804,0.875,0.595,0.0151,0.86,0.866,0.628,0.884,0.614,0.512,0.414,0.345,0.144
Nc1nc(Cl)nc2c1ncn2[C@@H]1O[C@H](CO)[C@@H](O)[C@@H]1F [Clofarabine],107 ± 2.7%,101.98 ± 0.033%,102.7 ± 0.28%,91.6 ± 3.6%,47.38 ± 0.098%,46.8 ± 2.5%,114 ± 4.2%,104.4 ± 0.4%,103 ± 2.5%,96.69 ± 0.62%,49.3 ± 1.3%,51.8 ± 2.4%,1.06,0.989,1.02,1.05,1.05,0.404,0.00754,0.00286,0.00163,1.11,0.982,1.02,0.905,0.929,0.0836,0.0188,0.0106,0.00741
CNC(=O)c1cc(Oc2ccc(NC(=O)Nc3cc(C(C)(C)C)nn3-c3ccc4ncccc4c3)c(F)c2)ccn1 [DCC-2036],96.92 ± 0.83%,98.2 ± 4.1%,90.7 ± 1.8%,69.51 ± 0.61%,59.4 ± 0.26%,9.01 ± 0.21%,100 ± 5.8%,97.14 ± 0.62%,92.2 ± 4.6%,87 ± 1.4%,87.2 ± 2%,9.801 ± 0.031%,1.18,1.26,1.25,1.24,1.32,0.354,1.05,0.00706,0.00896,1.65,1.68,1.69,1.63,1.59,1.62,1.43,0.931,0.0177
Nc1ncn([C@H]2C[C@H](O)[C@@H](CO)O2)c(=O)n1 [Decitabine],112 ± 7.6%,102.5 ± 0.51%,95.65 ± 0.75%,95.7 ± 3.1%,85.5 ± 6.7%,83.8 ± 3.4%,104 ± 11%,94.3 ± 5.7%,98.29 ± 0.53%,98.5 ± 1.5%,80.2 ± 4.8%,93.1 ± 7.1%,1.08,1.04,0.99,0.967,1.08,0.973,0.635,0.277,0.155,1,0.906,1,0.888,0.803,0.544,0.312,0.104,0.0392
CO[C@H]1C[C@@H]2CC[C@@H](C)[C@@](O)(O2)C(=O)C(=O)N2CCCC[C@H]2C(=O)O[C@H]([C@H](C)C[C@@H]2CC[C@@H](OP(C)(C)=O)[C@H](OC)C2)CC(=O)[C@H](C)/C=C(\C)[C@@H](O)[C@@H](OC)C(=O)[C@H](C)C[C@H](C)/C=C/C=C/C=C/1C [Deforolimus(MK-8669)],64.9 ± 4.2%,64.215 ± 0.057%,68.4 ± 2.7%,69.1 ± 1.9%,64.44 ± 0.59%,67.4 ± 1.6%,47.2 ± 1.4%,56.5 ± 2.7%,56.6 ± 1.4%,51.2 ± 2%,47.9 ± 3%,48.8 ± 5.1%,0.988,0.964,0.973,0.932,0.899,0.802,0.693,0.381,0.459,0.609,0.552,0.523,0.466,0.466,0.493,0.373,0.281,0.284
C=C1C[C@@H]2[C@H](CC[C@]3(C)C(=O)CC[C@@H]23)[C@@]2(C)C=CC(=O)C=C12 [Exemestane],100.1 ± 0.24%,101 ± 2.2%,104 ± 1.6%,100 ± 1.2%,97.5 ± 1.4%,92.3 ± 2.7%,130 ± 2.1%,122 ± 5.8%,119 ± 1.2%,114 ± 3.2%,113 ± 5.9%,105 ± 3.4%,0.936,0.98,0.996,1.01,1.08,1.02,0.927,0.859,0.773,1.16,1.08,1.02,0.948,1.06,1.11,1.12,0.94,0.891
Nc1ccn([C@@H]2O[C@H](CO)[C@@H](O)C2(F)F)c(=O)n1 [Gemcitabine Hydrochloride],103 ± 1.8%,95.2 ± 9.7%,51.9 ± 0.63%,50 ± 2.1%,41.866 ± 0.0075%,28.5 ± 1.5%,108 ± 11%,93 ± 1.5%,52.67 ± 0.069%,52.6 ± 0.69%,44.7 ± 3.6%,32.9 ± 0.75%,1.06,1.01,1.02,0.0319,0.014,0.00861,0.007,0.00362,0.00263,1.07,0.96,0.953,0.0927,0.0285,0.023,0.0148,0.008,0.00219
COc1ccc(S(=O)(=O)N(C(C)=O)c2ccccc2/C=C/c2cc[n+]([O-])cc2)cc1 [HMN-214],98.78 ± 0.21%,99.62 ± 0.55%,100.9 ± 0.31%,97.91 ± 0.21%,45.5 ± 1.1%,39.5 ± 0.96%,112 ± 4%,110 ± 1.5%,96.8 ± 5.4%,92.7 ± 1.4%,40.4 ± 1.6%,37 ± 2.7%,1.14,1.08,1.09,1.17,1.09,0.985,0.0414,0.0021,0.00207,1.16,1.09,1.35,1.08,1.01,1.02,0.0913,0.0251,0.03
O=C1Nc2ccccc2/C1=C1/Nc2ccccc2C1=O [Indirubin],86.1 ± 1.6%,82.2 ± 3.9%,83.7 ± 2.7%,81.9 ± 4%,79.1 ± 3.3%,64 ± 2.4%,97.2 ± 1.8%,92.9 ± 2%,91.53 ± 0.38%,87.8 ± 2.7%,92.2 ± 1.6%,89.5 ± 2.1%,0.983,1.03,1.02,0.972,0.941,0.964,0.87,0.811,0.749,1.08,0.927,1.06,0.906,0.922,0.996,0.841,0.652,0.833
